Measured values reported in patent US7297700B2, “Bicycloheteroaryl compounds as P2X7 modulators and uses thereof” (Renovis, Inc., priority 2005, dated 2007).

Test system: IL-1β release from THP-1 cells
Assay: IL-1β Release Assay (Alternate Method), THP-1 cells
Assay type: cell-based, human
Conditions: Homo sapiens; at 0.3 μM; THP-1 cells; read-out: IL-1β % inhibition
Summary of the method: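 IL-1β release, measured by ELISA, follows 45 min BzATP (250 uM final) stimulation of THP-1 cells given 30 min compound pretreatment. Cells were first primed 16 h with LPS and IFN-γ (100 ng/mL each), then 2 h with fresh LPS; inhibition expressed in percent after background correction.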

SMILES | inhibition at 0.3 µM [%]
O=C(CC12CC3CC(CC(C3)C1)C2)Nc1ncnc2c1CCN(C(=O)c1ccccc1)C2 [Compound 220] | > 75

Same assay, conditions: at 0.3 μM; THP-1 cells

SMILES | IL-1β % inhibition
Cc1ccc(F)cc1S(=O)(=O)N1CCc2c(ncnc2NC(=O)CC23CC4CC(CC(C4)C2)C3)C1 [Compound 212] | +++ (compound exhibited 50-75% inhibition at 0.3 μM)
COc1ccc(C)cc1S(=O)(=O)N1CCc2c(ncnc2NC(=O)CC23CC4CC(CC(C4)C2)C3)C1 [Compound 214] | + (compound exhibited 0-25% inhibition at 0.3 μM)
O=C(CC12CC3CC(CC(C3)C1)C2)Nc1ncnc2c1CCN(S(=O)(=O)c1cccc(F)c1)C2 [Compound 215] | +++ (compound exhibited 50-75% inhibition at 0.3 μM)
COc1ccc(OC)c(S(=O)(=O)N2CCc3c(ncnc3NC(=O)CC34CC5CC(CC(C5)C3)C4)C2)c1 [Compound 216] | +++ (compound exhibited 50-75% inhibition at 0.3 μM)
Cc1cc(C)cc(S(=O)(=O)N2CCc3c(ncnc3NC(=O)CC34CC5CC(CC(C5)C3)C4)C2)c1 [Compound 217] | + (compound exhibited 0-25% inhibition at 0.3 μM)
O=C(CC12CC3CC(CC(C3)C1)C2)Nc1ncnc2c1CCN(C(=O)c1c(Cl)cccc1Cl)C2 [Compound 218] | ++++ (compound exhibited 75% or greater inhibition at 0.3 μM)
CC(=O)N1CCc2c(ncnc2NC(=O)CC23CC4CC(CC(C4)C2)C3)C1 [Compound 219] | + (compound exhibited 0-25% inhibition at 0.3 μM)
O=C(CC12CC3CC(CC(C3)C1)C2)Nc1ncnc2c1CCN(C(=O)c1cccnc1Cl)C2 [Compound 222] | +++ (compound exhibited 50-75% inhibition at 0.3 μM)
CCC(=O)N1CCc2c(ncnc2NC(=O)CC23CC4CC(CC(C4)C2)C3)C1 [Compound 223] | + (compound exhibited 0-25% inhibition at 0.3 μM)
COc1ccc(CC(=O)N2CCc3c(ncnc3NC(=O)CC34CC5CC(CC(C5)C3)C4)C2)cc1 [Compound 224] | + (compound exhibited 0-25% inhibition at 0.3 μM)
O=C(CC12CC3CC(CC(C3)C1)C2)Nc1ncnc2c1CCN(C(=O)Cc1ccccc1)C2 [Compound 225] | ++ (compound exhibited 25-50% inhibition at 0.3 μM)
O=C(CC12CC3CC(CC(C3)C1)C2)Nc1ncnc2c1CCN(C(=O)c1cccc(F)c1)C2 [Compound 227] | + (compound exhibited 0-25% inhibition at 0.3 μM)
O=C(CC12CC3CC(CC(C3)C1)C2)Nc1ncnc2c1CCN(C(=O)c1ccc(OC(F)(F)F)cc1)C2 [Compound 228] | + (compound exhibited 0-25% inhibition at 0.3 μM)
CCc1ccc(C(=O)N2CCc3c(ncnc3NC(=O)CC34CC5CC(CC(C5)C3)C4)C2)cc1 [Compound 229] | +++ (compound exhibited 50-75% inhibition at 0.3 μM)
Cc1cccc(C(=O)N2CCc3c(ncnc3NC(=O)CC34CC5CC(CC(C5)C3)C4)C2)c1 [Compound 230] | ++++ (compound exhibited 75% or greater inhibition at 0.3 μM)
O=C(CC12CC3CC(CC(C3)C1)C2)Nc1ncnc2c1CCN(C(=O)CCC1CCCC1)C2 [Compound 231] | ++ (compound exhibited 25-50% inhibition at 0.3 μM)
O=C(CC12CC3CC(CC(C3)C1)C2)Nc1ncnc2c1CCN(C(=O)c1ccc(F)c(F)c1)C2 [Compound 232] | +++ (compound exhibited 50-75% inhibition at 0.3 μM)
O=C(CC12CC3CC(CC(C3)C1)C2)Nc1ncnc2c1CCN(C(=O)c1cccc(C(F)(F)F)c1)C2 [Compound 233] | ++++ (compound exhibited 75% or greater inhibition at 0.3 μM)
COc1ccc(C(=O)N2CCc3c(ncnc3NC(=O)CC34CC5CC(CC(C5)C3)C4)C2)cc1 [Compound 234] | ++ (compound exhibited 25-50% inhibition at 0.3 μM)
CC(CC(=O)N1CCc2c(ncnc2NC(=O)CC23CC4CC(CC(C4)C2)C3)C1)CC(C)(C)C (centres unmarked) [Compound 235] | ++++ (compound exhibited 75% or greater inhibition at 0.3 μM)
O=C(CC12CC3CC(CC(C3)C1)C2)Nc1ncnc2c1CCN(C(=O)C(c1ccccc1)c1ccccc1)C2 [Compound 236] | +++ (compound exhibited 50-75% inhibition at 0.3 μM)
O=C(CC12CC3CC(CC(C3)C1)C2)Nc1ncnc2c1CCN(C(=O)c1cccnc1)C2 [Compound 237] | + (compound exhibited 0-25% inhibition at 0.3 μM)
O=C(CC12CC3CC(CC(C3)C1)C2)Nc1ncnc2c1CCN(C(=O)C1CCCC1)C2 [Compound 238] | ++++ (compound exhibited 75% or greater inhibition at 0.3 μM)
COc1ccc(OC)c(CC(=O)N2CCc3c(ncnc3NC(=O)CC34CC5CC(CC(C5)C3)C4)C2)c1 [Compound 239] | ++ (compound exhibited 25-50% inhibition at 0.3 μM)
COCC(=O)N1CCc2c(ncnc2NC(=O)CC23CC4CC(CC(C4)C2)C3)C1 [Compound 240] | + (compound exhibited 0-25% inhibition at 0.3 μM)
O=C(CC12CC3CC(CC(C3)C1)C2)Nc1ncnc2c1CCN(C(=O)Cc1ccc(F)cc1)C2 [Compound 241] | +++ (compound exhibited 50-75% inhibition at 0.3 μM)

SMILES | IL-1β % inhibition
N#Cc1cccc(C(=O)N2CCc3c(ncnc3NC(=O)CC34CC5CC(CC(C5)C3)C4)C2)c1 [Compound 242] | +++ (compound exhibited 50-75% inhibition at 0.3 μM)
O=C(CC12CC3CC(CC(C3)C1)C2)Nc1ncnc2c1CCN(C(=O)c1ccc(C(F)(F)F)cc1)C2 [Compound 243] | +++ (compound exhibited 50-75% inhibition at 0.3 μM)
O=C(CC12CC3CC(CC(C3)C1)C2)Nc1ncnc2c1CCN(C(=O)C1CCCCC1)C2 [Compound 244] | ++ (compound exhibited 25-50% inhibition at 0.3 μM)
O=C(CC12CC3CC(CC(C3)C1)C2)Nc1ncnc2c1CCN(C(=O)c1ccc(Cl)c(Cl)c1)C2 [Compound 245] | +++ (compound exhibited 50-75% inhibition at 0.3 μM)
COc1cc(OC)cc(C(=O)N2CCc3c(ncnc3NC(=O)CC34CC5CC(CC(C5)C3)C4)C2)c1 [Compound 246] | ++ (compound exhibited 25-50% inhibition at 0.3 μM)
O=C(CC12CC3CC(CC(C3)C1)C2)Nc1ncnc2c1CCN(C(=O)c1c(F)cccc1F)C2 [Compound 247] | ++++ (compound exhibited 75% or greater inhibition at 0.3 μM)
O=C(CC12CC3CC(CC(C3)C1)C2)Nc1ncnc2c1CCN(C(=O)CCc1ccccc1)C2 [Compound 248] | + (compound exhibited 0-25% inhibition at 0.3 μM)
O=C(CC12CC3CC(CC(C3)C1)C2)Nc1ncnc2c1CCN(C(=O)COc1ccccc1)C2 [Compound 249] | + (compound exhibited 0-25% inhibition at 0.3 μM)
COc1cccc(C(=O)N2CCc3c(ncnc3NC(=O)CC34CC5CC(CC(C5)C3)C4)C2)c1 [Compound 250] | +++ (compound exhibited 50-75% inhibition at 0.3 μM)
O=C(CC12CC3CC(CC(C3)C1)C2)Nc1ncnc2c1CCN(C(=O)c1ccc(F)cc1)C2 [Compound 251] | + (compound exhibited 0-25% inhibition at 0.3 μM)
CC(C)(C)C(=O)N1CCc2c(ncnc2NC(=O)CC23CC4CC(CC(C4)C2)C3)C1 [Compound 252] | ++ (compound exhibited 25-50% inhibition at 0.3 μM)
O=C(CC12CC3CC(CC(C3)C1)C2)Nc1ncnc2c1CCN(C(=O)c1cccc(Cl)c1)C2 [Compound 253] | +++ (compound exhibited 50-75% inhibition at 0.3 μM)
COc1ccc(CC(=O)N2CCc3c(ncnc3NC(=O)CC34CC5CC(CC(C5)C3)C4)C2)cc1OC [Compound 254] | + (compound exhibited 0-25% inhibition at 0.3 μM)
CC(C)CC(=O)N1CCc2c(ncnc2NC(=O)CC23CC4CC(CC(C4)C2)C3)C1 [Compound 255] | ++ (compound exhibited 25-50% inhibition at 0.3 μM)
O=C(CC12CC3CC(CC(C3)C1)C2)Nc1ncnc2c1CCN(C(=O)COCc1ccccc1)C2 [Compound 256] | +++ (compound exhibited 50-75% inhibition at 0.3 μM)
N#Cc1ccc(C(=O)N2CCc3c(ncnc3NC(=O)CC34CC5CC(CC(C5)C3)C4)C2)cc1 [Compound 257] | + (compound exhibited 0-25% inhibition at 0.3 μM)
O=C(CC12CC3CC(CC(C3)C1)C2)Nc1ncnc2c1CCN(C(=O)c1ccc(Cl)cc1Cl)C2 [Compound 258] | ++++ (compound exhibited 75% or greater inhibition at 0.3 μM)
O=C(CC12CC3CC(CC(C3)C1)C2)Nc1ncnc2c1CCN(C(=O)C1CC1)C2 [Compound 260] | +++ (compound exhibited 50-75% inhibition at 0.3 μM)
COc1cccc(CC(=O)N2CCc3c(ncnc3NC(=O)CC34CC5CC(CC(C5)C3)C4)C2)c1 [Compound 261] | + (compound exhibited 0-25% inhibition at 0.3 μM)
CC(C)(C)CC(=O)N1CCc2c(ncnc2NC(=O)CC23CC4CC(CC(C4)C2)C3)C1 [Compound 262] | + (compound exhibited 0-25% inhibition at 0.3 μM)
O=C(CC12CC3CC(CC(C3)C1)C2)Nc1ncnc2c1CCN(C(=O)CC1CCCC1)C2 [Compound 263] | ++++ (compound exhibited 75% or greater inhibition at 0.3 μM)
O=C(CC12CC3CC(CC(C3)C1)C2)Nc1ncnc2c1CCN(C(=O)COc1ccc(Cl)cc1)C2 [Compound 264] | +++ (compound exhibited 50-75% inhibition at 0.3 μM)
O=C(CC12CC3CC(CC(C3)C1)C2)Nc1ncnc2c1CCN(C(=O)Cc1ccc(Cl)cc1)C2 [Compound 265] | ++ (compound exhibited 25-50% inhibition at 0.3 μM)
O=C(CC12CC3CC(CC(C3)C1)C2)Nc1ncnc2c1CCN(C(=O)c1ccc(C(F)(F)F)cc1F)C2 [Compound 266] | + (compound exhibited 0-25% inhibition at 0.3 μM)
O=C(CC12CC3CC(CC(C3)C1)C2)Nc1ncnc2c1CCN(C(=O)c1cc(F)cc(C(F)(F)F)c1)C2 [Compound 267] | ++ (compound exhibited 25-50% inhibition at 0.3 μM)
O=C(CC12CC3CC(CC(C3)C1)C2)Nc1ncnc2c1CCN(C(=O)c1cccc(OC(F)(F)F)c1)C2 [Compound 269] | ++ (compound exhibited 25-50% inhibition at 0.3 μM)
